Laboratory results from patent US20240208968A1, “ALPHA V BETA 6 AND ALPHA V BETA 1 INTEGRIN INHIBITORS AND USES THEREOF” (DiCE Molecules SV, Inc., priority 2021, published 2024).

Columns and labels:
[1] = target: αvβ1 (Homo sapiens, UniProt P05556+P06756); test: Solid Phase Integrin αvβ1 Assay; format: binding
Method in brief: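 Compound competes for αvβ1 binding to immobilized TGFb1-LAP (1 µg/mL coat) in Mn2+ (1 mM MnCl2), 2% BSA binding buffer over 90 min at room temperature, integrin added at 0.2 µg/mL. Read-out: streptavidin-HRP/TMB; IC50 from Levenberg-Marquardt four-parameter fit.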

[2] = target: αvβ6 (Homo sapiens, UniProt P06756+P18564); test: Solid Phase Integrin αvβ6 Assay; format: binding
Method in brief: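 Inhibition of αvβ6 binding to immobilized recombinant TGFb1-LAP (1 μg/mL coating), 1 h at room temperature with 1 mM MnCl2 in BSA/TBST buffer, integrin diluted to 0.2 μg/mL before addition. Streptavidin-HRP/TMB read-out; four-parameter logistic fitting gave IC50.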

Sequence of αvβ1 (P06756 31-992 limits assumed): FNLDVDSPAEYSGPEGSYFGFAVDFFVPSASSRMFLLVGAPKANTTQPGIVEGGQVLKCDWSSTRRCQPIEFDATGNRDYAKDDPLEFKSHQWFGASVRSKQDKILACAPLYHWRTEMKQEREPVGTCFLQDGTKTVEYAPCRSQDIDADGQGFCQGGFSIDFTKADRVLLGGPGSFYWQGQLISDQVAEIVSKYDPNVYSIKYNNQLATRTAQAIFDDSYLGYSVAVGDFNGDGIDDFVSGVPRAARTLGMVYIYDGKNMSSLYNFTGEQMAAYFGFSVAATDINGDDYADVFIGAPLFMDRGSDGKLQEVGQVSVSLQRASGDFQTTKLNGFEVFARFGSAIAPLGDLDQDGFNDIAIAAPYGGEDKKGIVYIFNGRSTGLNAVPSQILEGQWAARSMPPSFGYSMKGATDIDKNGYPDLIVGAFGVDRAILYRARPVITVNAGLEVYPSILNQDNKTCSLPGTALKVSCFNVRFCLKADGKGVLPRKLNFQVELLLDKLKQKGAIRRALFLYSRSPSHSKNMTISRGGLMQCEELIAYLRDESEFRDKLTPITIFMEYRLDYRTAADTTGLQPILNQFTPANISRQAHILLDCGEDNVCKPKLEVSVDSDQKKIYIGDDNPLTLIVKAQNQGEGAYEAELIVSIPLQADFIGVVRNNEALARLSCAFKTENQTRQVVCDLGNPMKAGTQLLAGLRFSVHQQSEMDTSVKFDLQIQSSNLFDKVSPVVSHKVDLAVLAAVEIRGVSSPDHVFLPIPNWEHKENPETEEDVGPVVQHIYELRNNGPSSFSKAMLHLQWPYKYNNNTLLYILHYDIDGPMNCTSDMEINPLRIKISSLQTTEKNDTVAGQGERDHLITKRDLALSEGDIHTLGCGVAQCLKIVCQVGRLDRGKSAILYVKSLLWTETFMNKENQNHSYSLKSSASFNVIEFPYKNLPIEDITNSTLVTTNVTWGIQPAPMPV
Sequence of αvβ1 (P05556 21-728 limits assumed): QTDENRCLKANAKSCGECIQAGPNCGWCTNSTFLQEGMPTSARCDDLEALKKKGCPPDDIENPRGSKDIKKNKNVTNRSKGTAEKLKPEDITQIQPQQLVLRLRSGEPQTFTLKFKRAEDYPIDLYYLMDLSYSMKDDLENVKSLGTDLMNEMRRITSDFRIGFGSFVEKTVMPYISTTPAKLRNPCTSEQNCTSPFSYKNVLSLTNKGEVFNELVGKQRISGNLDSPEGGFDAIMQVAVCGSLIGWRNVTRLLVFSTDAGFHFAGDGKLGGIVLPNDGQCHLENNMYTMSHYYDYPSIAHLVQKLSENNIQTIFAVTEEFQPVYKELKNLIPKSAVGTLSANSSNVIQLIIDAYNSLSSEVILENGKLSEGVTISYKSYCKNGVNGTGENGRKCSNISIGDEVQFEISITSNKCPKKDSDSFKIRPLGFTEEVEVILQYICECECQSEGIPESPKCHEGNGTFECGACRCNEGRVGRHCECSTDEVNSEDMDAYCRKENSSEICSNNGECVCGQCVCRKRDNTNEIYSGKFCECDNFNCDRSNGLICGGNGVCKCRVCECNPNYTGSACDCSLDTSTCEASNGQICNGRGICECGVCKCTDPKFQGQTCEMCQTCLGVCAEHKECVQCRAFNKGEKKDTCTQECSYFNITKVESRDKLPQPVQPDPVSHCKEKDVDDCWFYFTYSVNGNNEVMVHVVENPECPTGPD
Sequence of αvβ6 (P06756 31-992 limits assumed): as the sequence (P06756 31-992 limits assumed) above
Sequence of αvβ6 (P18564 22-707 limits assumed): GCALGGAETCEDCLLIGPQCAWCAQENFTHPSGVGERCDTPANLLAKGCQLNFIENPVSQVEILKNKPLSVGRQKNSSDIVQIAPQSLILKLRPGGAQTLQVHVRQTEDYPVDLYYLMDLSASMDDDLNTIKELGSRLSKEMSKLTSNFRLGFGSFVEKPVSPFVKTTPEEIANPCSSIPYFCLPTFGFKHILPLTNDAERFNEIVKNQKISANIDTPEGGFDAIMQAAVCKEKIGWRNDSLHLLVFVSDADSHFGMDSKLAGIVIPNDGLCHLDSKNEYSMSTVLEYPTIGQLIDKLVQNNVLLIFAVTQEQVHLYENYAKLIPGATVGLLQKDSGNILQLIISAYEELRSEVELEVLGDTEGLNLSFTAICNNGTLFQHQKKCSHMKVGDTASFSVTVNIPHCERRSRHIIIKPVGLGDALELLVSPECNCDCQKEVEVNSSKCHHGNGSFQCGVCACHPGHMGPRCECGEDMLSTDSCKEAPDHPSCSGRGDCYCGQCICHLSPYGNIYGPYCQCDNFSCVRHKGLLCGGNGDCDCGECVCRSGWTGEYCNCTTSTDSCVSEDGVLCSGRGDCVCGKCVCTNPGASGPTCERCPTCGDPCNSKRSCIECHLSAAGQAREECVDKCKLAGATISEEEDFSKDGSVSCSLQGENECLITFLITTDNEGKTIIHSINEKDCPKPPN

Row | IC50 [1] [nM] | IC50 [2] [nM] | Compound
1 | 100 to 1000 | 100 to 1000 | C[C@@H]1C[C@@H](C(=O)NC[C@@H](C(=O)O)c2cccc(-c3ccccc3)c2)CN(CCCc2ccc3c(n2)NCCC3)C1 [Compound 640]
2 | 100 to 1000 | 100 to 1000 | C[C@@H]1C[C@H](C(=O)NC[C@@H](C(=O)O)c2ccc3ccccc3c2)CN(CCCc2ccc3c(n2)NCCC3)C1 [Compound 641]
3 | > 1000 | > 1000 | C[C@@H]1C[C@H](C(=O)NC[C@@H](C(=O)O)c2cccc(-c3ccccc3)c2)CN(CCCc2ccc3c(n2)NCCC3)C1 [Compound 642]
4 | < 100 | < 100 | C[C@H]1C[C@H](C(=O)NC[C@@H](C(=O)O)c2ccc3ccccc3c2)CN(CCCc2ccc3c(n2)NCCC3)C1 [Compound 643]
5 | 100 to 1000 | 100 to 1000 | C[C@H]1C[C@H](C(=O)NC[C@@H](C(=O)O)c2cccc(-c3ccccc3)c2)CN(CCCc2ccc3c(n2)NCCC3)C1 [Compound 644]
6 | 100 to 1000 | > 1000 | C[C@H]1C[C@@H](C(=O)NC[C@@H](C(=O)O)c2ccc3ccccc3c2)CN(CCCc2ccc3c(n2)NCCC3)C1 [Compound 645]
7 | > 1000 | 100 to 1000 | C[C@H]1C[C@@H](C(=O)NC[C@@H](C(=O)O)c2cccc(-c3ccccc3)c2)CN(CCCc2ccc3c(n2)NCCC3)C1 [Compound 646]
8 | < 100 | < 100 | CC1(C)CN(c2cc([C@@H](CO[C@@H]3CCCN(CCCc4ccc5c(n4)NCCC5)C3)CC(=O)O)ccc2Cl)CCO1 [Compound 647]
9 | 100 to 1000 | 100 to 1000 | CC1(C)CN(c2cc([C@H](CO[C@@H]3CCCN(CCCc4ccc5c(n4)NCCC5)C3)CC(=O)O)ccc2Cl)CCO1 [Compound 648]
10 | < 100 | < 100 | O=C(O)C[C@@H](CO[C@@H]1CCCN(CCCc2ccc3c(n2)NCCC3)C1)c1cncc(N2CCC(F)(F)CC2)c1 [Compound 649]
11 | < 100 | < 100 | CC1(C)CN(c2cc(Cl)cc(C(CO[C@@H]3CCCN(CCCc4ccc5c(n4)NCCC5)C3)CC(=O)O)c2)CCO1 (some centres unmarked) [Compound 650]
12 | < 100 | < 100 | CC1(C)CN(c2cccc([C@H](CO[C@@H]3CCCN(CCCc4ccc5c(n4)NCCC5)C3)CC(=O)O)c2)CCC1(F)F [Compound 651]
13 | < 100 | < 100 | CC1(C)CN(c2cccc([C@@H](CO[C@@H]3CCCN(CCCc4ccc5c(n4)NCCC5)C3)CC(=O)O)c2)CCC1(F)F [Compound 652]
